This note sets out measurements from US20250326732A1 (Pretzel Therapeutics, Inc., priority 2021, published 2025).

pIC50: −log10 of the molar value.

The term pIC50 denotes the negative decadic logarithm of the IC50, by convention in mol/L.

The assay deals with POLRMT (Homo sapiens (Human), UniProt O00411). The assay is described as follows: homogeneous TR-FRET assay of mitochondrial transcription (inhibition of POLRMT). It is filed as biochemical. To be noted: 7.5 nM POLRMT, 15 nM TFB2M, 30 nM TFAM, 0.5 nM DNA template, 500 μM NTPs, 37° C. for 60 minutes. In outline: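 POLRMT transcription from linearized pUC-LSP DNA template; RNA product detected by hybridization of ATTO647 acceptor (1 nM) and biotinylated donor (3 nM) probes plus Europium-streptavidin. Reaction stopped with EDTA/700 mM NaCl buffer, pH 7.5.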
POLRMT, sequence (O00411 42-1230): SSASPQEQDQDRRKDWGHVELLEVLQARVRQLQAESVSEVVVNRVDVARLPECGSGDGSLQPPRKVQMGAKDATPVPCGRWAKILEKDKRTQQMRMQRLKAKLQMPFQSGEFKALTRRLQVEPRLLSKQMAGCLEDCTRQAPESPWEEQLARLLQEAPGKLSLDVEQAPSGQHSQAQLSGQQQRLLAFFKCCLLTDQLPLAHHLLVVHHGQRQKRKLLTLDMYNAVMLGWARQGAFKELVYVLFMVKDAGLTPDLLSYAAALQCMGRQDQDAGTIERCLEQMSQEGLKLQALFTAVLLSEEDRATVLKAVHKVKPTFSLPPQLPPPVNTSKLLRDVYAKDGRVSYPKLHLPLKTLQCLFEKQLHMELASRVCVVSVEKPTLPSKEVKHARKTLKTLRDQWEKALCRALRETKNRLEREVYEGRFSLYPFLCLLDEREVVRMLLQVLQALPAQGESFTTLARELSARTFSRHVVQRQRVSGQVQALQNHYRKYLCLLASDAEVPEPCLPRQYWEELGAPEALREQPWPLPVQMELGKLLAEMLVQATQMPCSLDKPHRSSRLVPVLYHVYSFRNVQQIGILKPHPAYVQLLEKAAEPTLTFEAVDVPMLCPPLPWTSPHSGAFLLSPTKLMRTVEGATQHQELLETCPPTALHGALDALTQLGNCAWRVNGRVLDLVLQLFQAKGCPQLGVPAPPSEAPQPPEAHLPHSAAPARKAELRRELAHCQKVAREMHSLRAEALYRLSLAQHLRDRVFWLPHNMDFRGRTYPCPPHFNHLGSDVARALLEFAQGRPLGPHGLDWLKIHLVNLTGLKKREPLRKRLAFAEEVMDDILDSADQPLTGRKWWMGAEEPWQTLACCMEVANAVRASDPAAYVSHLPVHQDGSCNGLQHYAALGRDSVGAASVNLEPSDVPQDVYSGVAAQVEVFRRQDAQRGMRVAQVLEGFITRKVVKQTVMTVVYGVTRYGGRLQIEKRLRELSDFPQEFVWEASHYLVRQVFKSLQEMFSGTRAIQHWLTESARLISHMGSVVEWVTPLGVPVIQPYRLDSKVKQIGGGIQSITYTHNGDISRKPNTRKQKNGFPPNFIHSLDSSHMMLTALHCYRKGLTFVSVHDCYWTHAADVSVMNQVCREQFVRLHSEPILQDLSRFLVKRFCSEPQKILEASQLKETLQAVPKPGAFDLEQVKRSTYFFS
(In general: TR-FRET usually uses a lanthanide donor and a delayed reading to cut background.)
`CC(=O)N(C)C(C)c1ccc2c(-c3ccccc3C)cc(=O)oc2c1` (centres unmarked) [Example 77, N-methyl-N-(1-(2-oxo-4-(o-tolyl)-2H-chromen-7-yl)ethyl)acetamide]: the negative-log IC50 (pIC50) is 5.70. Turning to `CNCc1ccc2c(-c3ccc(F)cc3Cl)cc(=O)oc2c1` [Example 04, 4-(2-chloro-4-fluorophenyl)-7-((methylamino)methyl)-2H-chromen-2-one], the pIC50 was < 4.00.

In turn, `Cc1ccccc1-c1cc(=O)oc2cc(CC(C)C(=O)N3CCC(C(=O)O)CC3)ccc12` (single isomer, unassigned) [Example 95, 1-(2-methyl-3-(2-oxo-4-(o-tolyl)-2H-chromen-7-yl)propanoyl)piperidine-4-carboxylic acid] showed a negative logarithm of the IC50 (pIC50) of 5.40. Under `CNc1ccc2c(-c3ccc(F)cc3Cl)cc(=O)oc2c1` [Example 25, 4-(2-chloro-4-fluorophenyl)-7-(methylamino)-2H-chromen-2-one] stands 6.40; under `Cc1ccccc1-c1cc(=O)oc2cc(NC(=O)C(C)C)ccc12` [Example 33, N-(2-oxo-4-(o-tolyl)-2H-chromen-7-yl) isobutyramide], 6.52. `Cc1ccccc1-c1cc(=O)oc2cc(C(C)CC(=O)N3CCCCC3)ccc12` (centres unmarked) [Example 59, 7-(4-oxo-4-(piperidin-1-yl)butan-2-yl)-4-(o-tolyl)-2H-chromen-2-one]: the pIC50 is 5.70. This pIC50 lies 0.82 log units lower than the previous one. Consider `Cc1ccccc1-c1cc(=O)oc2cc(CC(C)C(=O)N3CCC[C@H](S(C)(=O)=O)C3)ccc12` (single isomer, unassigned) [Example 85], for which the pIC50 was 6.52. Turning to `Cc1ccccc1-c1cc(=O)oc2cc(N[C@H](C)C(=O)N3CCC[C@H](C(=O)O)C3)ccc12` [Example 80, (S)-1-((2-oxo-4-(o-tolyl)-2H-chromen-7-yl)-D-alanyl)piperidine-3-carboxylic acid], the pIC50 was 7.00.

Consider `Cc1ccccc1-c1cc(=O)oc2cc(N(C)CCC(=O)O)ccc12` [Example 144, 3-(methyl(2-oxo-4-(o-tolyl)-2H-chromen-7-yl)amino)propanoic acid], for which the negative-log IC50 (pIC50) is 7.00.

`Cc1ccccc1-c1cc(=O)oc2cc(CN(C)C(=O)C3CCC(C(=O)O)CC3)ccc12` (centres unmarked) [Example 229, 4-(methyl((2-oxo-4-(o-tolyl)-2H-chromen-7-yl)methyl)carbamoyl)cyclohexane-1-carboxylic acid] had a pIC50 of 7.00. Regarding `Cc1ccccc1-c1cc(=O)oc2cc([C@@H]3C[C@H]3C(=O)N(C)C)ccc12` (relative stereo) [Example 241, chiral-(trans)-N,N-dimethyl-2-(2-oxo-4-(o-tolyl)-2H-chromen-7-yl)cyclopropane-1-carboxamide], the pIC50 is 5.30. This pIC50 is 1.70 log units lower than that of the compound before. In turn, `Cc1ccccc1-c1cc(=O)oc2cc([C@@H]3C[C@H]3C(=O)O)ccc12` (relative stereo) [Example 227, (trans)-2-(2-oxo-4-(o-tolyl)-2H-chromen-7-yl)cyclopropane-1-carboxylic acid] had a pIC50 of 5.52. For `Cc1ccccc1-c1cc(=O)oc2cc(CNC(=O)C3CCC(C(=O)O)CC3)ccc12` [Example 152, (1R,4R)-4-(((2-oxo-4-(o-tolyl)-2H-chromen-7-yl)methyl)carbamoyl)cyclohexane-1-carboxylic acid], the negative logarithm of the IC50 (pIC50) was 6.52. On to `CCOC(=O)/C(C)=C/c1ccc2c(-c3ccccc3C)cc(=O)oc2c1` [Example 50, ethyl (E)-2-methyl-3-(2-oxo-4-(o-tolyl)-2H-chromen-7-yl)acrylate], for which the pIC50 is 5.70. This pIC50 lies 0.82 log units lower than the previous one. `Cc1ccccc1-c1cc(=O)oc2cc(NCc3ccn(C)n3)ccc12` [Example 119, 7-(((1-methyl-1H-pyrazol-3-yl)methyl)amino)-4-(o-tolyl)-2H-chromen-2-one] had a pIC50 of 5.70. `CCOC(=O)[C@H]1CCCN(C(=O)[C@@H](C)Oc2cc(C)cc3oc(=O)cc(-c4ccc(F)cc4)c23)C1` [Example 159, ethyl (S)-1-((R)-2-((4-(4-fluorophenyl)-7-methyl-2-oxo-2H-chromen-5-yl)oxy)propanoyl)piperidine-3-carboxylate]: the negative-log IC50 (pIC50) was < 4.00. In the case of `CNC(=O)CCN(C)c1ccc2c(-c3ccc(F)cc3Cl)cc(=O)oc2c1` [Example 138, 3-((4-(2-chloro-4-fluorophenyl)-2-oxo-2H-chromen-7-yl)(methyl)amino)-N-methylpropanamide], the pIC50 was 5.70. `COCCNC(=O)CN(C)c1ccc2c(-c3ccccc3C)cc(=O)oc2c1` [Example 218, N-(2-methoxyethyl)-2-(methyl(2-oxo-4-(o-tolyl)-2H-chromen-7-yl)amino)acetamide] showed a pIC50 of 6.70.

In turn, `CC(O)c1ccc2c(-c3ccc(F)cc3Cl)cc(=O)oc2c1` (centres unmarked) [Example 40, 4-(2-chloro-4-fluorophenyl)-7-(1-hydroxyethyl)-2H-chromen-2-one] gave a pIC50 of 5.70. For the compound `CC(=O)N(C)[C@@H]1CCCN(C(=O)c2ccc3c(-c4ccccc4C)cc(=O)oc3c2)C1` [Example 172, (R)—N-methyl-N-(1-(2-oxo-4-(o-tolyl)-2H-chromene-7-carbonyl)piperidin-3-yl)acetamide], the pIC50 is < 4.00. For `CC(=O)NC1CCN(C(=O)c2ccc3c(-c4ccccc4C)cc(=O)oc3c2)CC1` [Example 109, N-(1-(2-oxo-4-(o-tolyl)-2H-chromene-7-carbonyl)piperidin-4-yl)acetamide], the negative-log IC50 (pIC50) is 5.30. The same measure for `Cc1ccccc1-c1cc(=O)oc2cc(NC(C)C(N)=O)ccc12` (single isomer, unassigned) [Example 189, 2-((2-oxo-4-(o-tolyl)-2H-chromen-7-yl)amino)propanamide]: 6.05; for `Cc1ccccc1-c1cc(=O)oc2cc(NCc3ccccn3)ccc12` [Example 164, 7-((pyridin-2-ylmethyl)amino)-4-(o-tolyl)-2H-chromen-2-one]: 5.40; for `Cc1ccccc1-c1cc(=O)oc2cc(N(C)[C@H](C)C(=O)O)ccc12` [Example 108, N-methyl-N-(2-oxo-4-(o-tolyl)-2H-chromen-7-yl)-D-alanine]: 7.40. `CNC(=O)[C@H]1CCCN(C(=O)C(C)Cc2ccc3c(-c4ccccc4C)cc(=O)oc3c2)C1` (single isomer, unassigned) [Example 92] had a pIC50 of 6.70. As for `CC(=O)N(C)c1ccc2c(-c3ccccc3C)cc(=O)oc2c1` [Example 44, N-methyl-N-(2-oxo-4-(o-tolyl)-2H-chromen-7-yl)acetamide], the pIC50 was 4.92.

The compound `Cc1ccccc1-c1cc(=O)oc2cc(N[C@@H](CC(C)C)C(=O)O)ccc12` [Example 73, (2-oxo-4-(o-tolyl)-2H-chromen-7-yl)-L-leucine] had a pIC50 of 5.52. For the compound `Cc1ccccc1-c1cc(=O)oc2cc(C(=O)NCc3nccn3C)ccc12` [Example 122, N-((1-methyl-1H-imidazol-2-yl)methyl)-2-oxo-4-(o-tolyl)-2H-chromene-7-carboxamide], the pIC50 is 5.30. Compound `COC[C@@H](C(=O)N1CCC[C@H](C(=O)O)C1)N(C)c1ccc2c(-c3ccccc3C)cc(=O)oc2c1` (single isomer, unassigned) [Example 120] gave a negative logarithm of the IC50 (pIC50) of 4.68.

Consider `CCOC(=O)[C@H]1CCCN(C(=O)N(C)Cc2ccc3c(-c4ccc(F)cc4Cl)cc(=O)oc3c2)C1` [Example 07, ethyl (S)-1-(((4-(2-chloro-4-fluorophenyl)-2-oxo-2H-chromen-7-yl)methyl)(methyl)carbamoyl)piperidine-3-carboxylate], for which the negative-log IC50 (pIC50) was 5.15. Compound `CC(=O)NC[C@@H]1CCN(C(=O)c2ccc3c(-c4ccccc4C)cc(=O)oc3c2)C1` [Example 196, (S)—N-((1-(2-oxo-4-(o-tolyl)-2H-chromene-7-carbonyl)pyrrolidin-3-yl)methyl)acetamide] gave a pIC50 of 4.38. `Cc1ccccc1-c1cc(=O)oc2cc(N(C)Cc3ncco3)ccc12` [Example 188, 7-(methyl(oxazol-2-ylmethyl)amino)-4-(o-tolyl)-2H-chromen-2-one] had a pIC50 of 7.10. Compound `CCOC(=O)/C(C)=C/c1ccc2c(-c3ccc(F)cc3Cl)cc(=O)oc2c1` [Example 14, ethyl (E)-3-(4-(2-chloro-4-fluorophenyl)-2-oxo-2H-chromen-7-yl)-2-methylacrylate] showed a negative logarithm of the IC50 (pIC50) of 4.74. Compound `Cc1ccccc1-c1cc(=O)oc2cc(N(C)Cc3ccn(C)n3)ccc12` [Example 125, 7-(methyl((1-methyl-1H-pyrazol-3-yl)methyl)amino)-4-(o-tolyl)-2H-chromen-2-one] showed a pIC50 of 7.00. `Cc1ccccc1-c1cc(=O)oc2cc(N(C)[C@H](C)CC(=O)O)ccc12` [Example 230, (R)-3-(methyl(2-oxo-4-(o-tolyl)-2H-chromen-7-yl)amino)butanoic acid] had a pIC50 of 6.70. `Cc1ccccc1-c1cc(=O)oc2cc(CC(C)C(=O)N3CC[C@H](C(=O)O)C3)ccc12` (single isomer, unassigned) [Example 100] showed a pIC50 of 4.68.

In turn, `Cc1ccccc1-c1cc(=O)oc2cc(NC3(C(N)=O)CC3)ccc12` [Example 213, 1-((2-oxo-4-(o-tolyl)-2H-chromen-7-yl)amino)cyclopropane-1-carboxamide] gave a pIC50 of 4.68.

`Cc1ccccc1-c1cc(=O)oc2cc([C@@H]3C[C@H]3C(N)=O)ccc12` (relative stereo) [Example 239, chiral-(trans)-2-(2-oxo-4-(o-tolyl)-2H-chromen-7-yl)cyclopropane-1-carboxamide]: the negative logarithm of the IC50 (pIC50) is 6.05.

With `Cc1ccccc1-c1cc(=O)oc2cc(N(C)C)ccc12` [Example 01, 7-(dimethylamino)-4-(o-tolyl)-2H-chromen-2-one], the negative-log IC50 (pIC50) was 6.40. `CCOC(=O)C(C)Cc1ccc2c(-c3ccccc3C)cc(=O)oc2c1` (centres unmarked) [Example 51, ethyl 2-methyl-3-[4-(o-tolyl)-2-oxo-chromen-7-yl]propanoate] had a pIC50 of 6.52. For the compound `O=C(O)CCNc1ccc2c(-c3ccccc3Cl)cc(=O)oc2c1` [Example 131, 3-((4-(2-chlorophenyl)-2-oxo-2H-chromen-7-yl)amino)propanoic acid], the pIC50 was 5.10.
